Laboratory results as given in patent US9708265B2, “Urethanes, ureas, amidines and related inhibitors of factor Xa” (priority 2010, dated 2017).

What was measured:
[1] = target: factor Xa (Homo sapiens, UniProt P00742); experiment: Activity towards factor Xa in vitro (initial rate of decomposition of substrate S-2222); format: biochemical; details: substrate S-2222 164 μM, room temperature, pH 7.5, 10 min preincubation; Ki calculated from IC50
Experimental: For some compounds depicted in the above examples, there has been measured a constant of activity of these substances towards the factor Xa in vitro—Ki. The measurements were carried out kinetically, in terms of the initial rate of decomposition of the substrate S-2222 by the protein. The measurements were carried out at room temperature in 2 ml rectangular quartz cuvettes. In the reaction there was used a solution: 50 mM Tris-HCl, 150 mM NaCl, 2.5 mM CaCl2, and 0.1% PEG 6000, pH 7.5, factor Xa […], S-2222 164 μM. The standard least-squares method was used for determining Km for certain concentrations of the protein and substrate. Before the reaction, the protein and the active agent in the solution were under thermostatic control for 10 min; then the substrate was added and the reaction was initiated. The reaction rate was measured with a Specord M80 instrument from a change in the light absorption at a wavelength of 405 nm. The IC50 values were determined from the experimentally obtained dependence of the initial rates on the concentration of the inhibitor (active agent). The Ki values were calculated from the concentrations of the protein, substrate, and inhibitors; the IC50 values, by the method described in (1) Jordan, S. P.; Waxman, L.; Smith, D. E.; Vlasik, G. P. Biochemistry 1990, 29, 11095 and (2) Morrison, J. F. Biochim Biophys. Acta 1969, 185, 269.

[2] = system: human blood plasma; experiment: Prothrombin time in human blood plasma in vitro (Diahem P kit); details: 3 min incubation, average of 3 measurements
Experimental: For some compounds depicted in the above examples, there has been measured the concentration of these compounds in human blood plasma, at which the prothrombin time of plasma is twice as much—2PT. The measurements were carried out with the aid of a Diahem P kit (NPO Renam, www.renam.ru) by a method described in the instruction for users of the kit. The active compound was dissolved in a blood plasma provided in the kit and was incubated for 3 min. The measurements were carried out with a Sysmex CA 50 instrument. For each concentration, there were taken 3 measurements and the result was averaged.

factor Xa, sequence (P00742 235-488 limits assumed): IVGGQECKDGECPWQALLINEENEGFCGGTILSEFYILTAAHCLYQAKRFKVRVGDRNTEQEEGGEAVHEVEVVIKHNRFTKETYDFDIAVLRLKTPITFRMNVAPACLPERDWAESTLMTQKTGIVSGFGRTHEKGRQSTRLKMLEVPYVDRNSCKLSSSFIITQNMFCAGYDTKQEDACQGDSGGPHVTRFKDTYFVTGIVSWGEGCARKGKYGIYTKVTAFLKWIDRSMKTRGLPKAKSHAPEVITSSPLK
factor Xa, sequence (P00742 41-179 partner limits assumed): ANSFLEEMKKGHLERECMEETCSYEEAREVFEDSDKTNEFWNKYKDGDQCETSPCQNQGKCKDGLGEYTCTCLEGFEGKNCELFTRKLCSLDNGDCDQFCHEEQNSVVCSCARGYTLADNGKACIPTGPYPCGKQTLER

| Compound | Ki [1] [nM] | 2 × PT (concentration at which the prothrombin time of plasma is twice as much) [2] [µM] |
| --- | --- | --- |
| CC(=N)N(C)c1ccc(C(=O)Nc2ccccc2C(=O)Nc2ccc(Cl)cn2)cc1 [Example 1, N-(5-chloropyridine-2-yl)-2-[(4-ethaneimidoyl-methylaminophenylcarbonyl)amino]benzamide] | 2 |  |
| COc1ccc(NC(=O)c2ccc(N(C)C(C)=N)cc2)c(C(=O)Nc2ccc(Cl)cn2)c1 [Example 4, N-(5-chloropyridine-2-yl)-2-[(4-ethaneimidoyl-methyl-aminophenylcarbonyl)amino]5-methoxybenzamide] | 1 |  |
| COc1ccc(NC(=O)c2ccc(N(C)C(C)=N)cc2OCCCN)c(C(=O)Nc2ccc(Cl)cn2)c1 [Example 8, N-(5-chloropyridine-2-yl)2-[4(ethaneimidoylmethylamino)-2-(3-aminopropoxy)phenylcarbonyl-amino]-5-methoxybenzamide] | 0.5 | 0.2 |
| CC(=N)N(C)c1ccc(C(=O)Nc2ccc(C)cc2C(=O)Nc2ccc(Cl)cn2)c(F)c1 [Example 11] | 0.8 | 0.09 |
| CC(=N)N(C)c1ccc(C(=O)Nc2ccc(Cl)cc2C(=O)Nc2ccc(Cl)cn2)c(F)c1 [Example 12] | 1 | 0.09 |
| CC(=N)N(C)c1ccc(C(=O)Nc2ccc(C)cc2C(=O)Nc2ccc(Cl)cn2)c(OCCCNC(C)=O)c1 [Example 13, N-(5-chloropyridine-2-yl)-2-[4-(ethaneimidoylmethylamino)-2-(3-(acetylamino)propoxy)phenylcarbonylamino]-5-methylbenzamide] | 0.5 | 1.5 |
| COC(=N)N(C)c1ccc(C(=O)Nc2ccc(C)cc2C(=O)Nc2ccc(Cl)cn2)cc1 [Example 14, N-(5-chloropyridine-2-yl)-2-[(4-(imino(methoxy)methyl)(methyl)aminophenylcarbonyl)amino]5-methylbenzamide] | 2 |  |
| CNC(=N)N(C)c1ccc(C(=O)Nc2ccc(C)cc2C(=O)Nc2ccc(Cl)cn2)cc1 [Example 15] | 0.5 | 1.5 |
| CNC(=N)N(C)c1ccc(C(=O)Nc2ccc(Cl)cc2C(=O)Nc2ccc(Cl)cn2)cc1 [Example 16] | 0.5 | 1.5 |

Further lines, with some results ahead:

| Ki [1] [nM] | Compound | 2 × PT (concentration at which the prothrombin time of plasma is twice as much) [2] [µM] |
| --- | --- | --- |
| 0.5 | CC(=N)N(C)c1ccc(C(=O)Nc2ccc(C)cc2C(=O)Nc2ccc(Cl)cn2)cc1 [Example 2, N-(5-chloropyridine-2-yl)-2-[(4-ethaneimidoyl-methyl-aminophenylcarbonyl)amino]5-methylbenzamide] |  |
| 0.3 | CC(=N)N(C)c1ccc(C(=O)Nc2ccc(Cl)cc2C(=O)Nc2ccc(Cl)cn2)cc1 [Example 3, N-(5-chloropyridine-2-yl)-2-[(4-ethaneimidoyl-methyl-aminophenylcarbonyl)amino]-5-chlorobenzamide] |  |
| 0.5 | CC(=N)N(C)c1ccc(C(=O)Nc2ccccc2C(=O)Nc2ccc(Cl)cn2)c(OCCCN)c1 [Example 5, N-(5-chloropyridine-2-yl)-2-[4-(ethaneimidoylmethylamino)-2-(3-aminopropoxy)phenylcarbonyl-amino]benzamide] | 0.2 |
| 0.5 | CC(=N)N(C)c1ccc(C(=O)Nc2ccc(C)cc2C(=O)Nc2ccc(Cl)cn2)c(OCCCN)c1 [Example 6] | 0.2 |
| 0.5 | CC(=N)N(C)c1ccc(C(=O)Nc2ccc(Cl)cc2C(=O)Nc2ccc(Cl)cn2)c(OCCCN)c1 [Example 7, N-(5-chloropyridine-2-yl)-2-[4-(ethaneimidoylmethylamino)-2-(3-aminopropoxy)phenylcarbonylamino]-5-chlorobenzamide] |  |
| 0.4 | CC(=N)N(C)c1cc(F)c(C(=O)Nc2ccc(C)cc2C(=O)Nc2ccc(Cl)cn2)c(OCCCN)c1 [Example 9, N-(5-chloropyridine-2-yl)-2-[4-(ethaneimidoylmethylamino)-2-(3-aminopropoxy)-6-fluorophenylcarbonylamino]-5-methylbenzamide] | 0.15 |
| 0.4 | CC(=N)N(C)c1cc(F)c(C(=O)Nc2ccc(Cl)cc2C(=O)Nc2ccc(Cl)cn2)c(OCCCN)c1 [Example 10, N-(5-chloropyridine-2-yl)-2-[2-(3-aminopropoxy)-6-fluoro-4(ethaneamidoylmethylamino)phenylcarbonylamino]-5-chlorobenzamide] | 0.15 |
| 0.15 | CNC(=O)N(C)c1ccc(C(=O)Nc2ccc(Cl)cc2C(=O)Nc2ccc(Cl)cn2)cc1 [Example 17, N-(5-chloropyridine-2-yl)-2-[(4-methyl(methylcarbamoyl)aminophenylcarbonyl)amino]-5-chlorobenzamide] |  |
| 0.15 | CNC(=O)N(C)c1ccc(C(=O)Nc2ccc(C)cc2C(=O)Nc2ccc(Cl)cn2)cc1 [Example 18] | 3.0 |
| 0.2 | CNC(=O)N(C)c1ccc(C(=O)Nc2ccc(C)cc2C(=O)Nc2ccc(Cl)cn2)c(OCCCN)c1 [Example 19] | 1.0 |
| 0.2 | CNC(=O)N(C)c1ccc(C(=O)Nc2ccc(Cl)cc2C(=O)Nc2ccc(Cl)cn2)c(OCCCN)c1 [Example 20] | 1.0 |
